# Measured values reported in PMC12403558, “Novel enzymes involved in the biotransformation of oxytetracycline by Arthrobacter nicotianae OTC-16” (Microbiology Spectrum, 2025).
# How the values were obtained:
# uaZ = molecular target: T1, uaZ (Glutamicibacter nicotianae, UniProt A0ABQ0RHS3); assay: OTC depletion by HPLC after adding […] mg expressed protein extract; type: biochemical; details: LB broth without strain OTC-16, 30 C, 180 rpm, 4 days, product not identified, not described as purified
# T1 construct: gene ANI01nite_05670; E. coli BL21(DE3) soluble extract, no purification described; about 34 kDa; primers encode N-term MTTEITAPAD, C-term IWANIPAFI
# T1 sequence (A0ABQ0RHS3 entry or part of it): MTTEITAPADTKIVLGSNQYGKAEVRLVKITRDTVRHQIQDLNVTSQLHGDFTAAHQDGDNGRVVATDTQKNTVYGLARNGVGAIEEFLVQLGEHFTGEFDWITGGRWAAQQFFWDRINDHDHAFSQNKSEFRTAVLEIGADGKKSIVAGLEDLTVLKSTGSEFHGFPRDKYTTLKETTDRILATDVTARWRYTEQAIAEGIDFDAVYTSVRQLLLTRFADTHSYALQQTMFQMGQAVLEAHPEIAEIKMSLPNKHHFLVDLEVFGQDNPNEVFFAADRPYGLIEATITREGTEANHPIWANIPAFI
# prpD = molecular target: T2, prpD (Glutamicibacter nicotianae, UniProt A0ABQ0RQ59); assay: as above; type: biochemical; details: LB broth without strain OTC-16, 30 C, 180 rpm, 4 days, product not identified, not described as purified
# T2 construct: gene ANI01nite_31520; E. coli BL21(DE3) soluble extract, no purification described; about 55 kDa; primers encode N-term MINHPVR, C-term PKGLF
# T2 sequence (A0ABQ0RQ59 entry or part of it): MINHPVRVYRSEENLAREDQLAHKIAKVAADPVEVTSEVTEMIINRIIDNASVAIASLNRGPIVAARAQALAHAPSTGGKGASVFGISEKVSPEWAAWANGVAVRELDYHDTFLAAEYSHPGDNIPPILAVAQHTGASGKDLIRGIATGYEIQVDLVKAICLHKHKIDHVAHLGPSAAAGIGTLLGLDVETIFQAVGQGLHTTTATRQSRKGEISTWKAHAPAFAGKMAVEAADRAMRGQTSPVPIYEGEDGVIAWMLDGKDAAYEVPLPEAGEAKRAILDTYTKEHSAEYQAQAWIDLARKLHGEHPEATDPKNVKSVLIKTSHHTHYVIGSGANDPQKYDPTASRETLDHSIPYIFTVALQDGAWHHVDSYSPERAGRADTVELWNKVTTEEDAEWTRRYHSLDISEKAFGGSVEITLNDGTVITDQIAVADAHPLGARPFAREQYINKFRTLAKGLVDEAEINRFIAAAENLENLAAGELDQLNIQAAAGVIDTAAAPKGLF
smiles,measurement,setting,value
CN(C)[C@@H]1C(=O)C(C(N)=O)=C(O)[C@@]2(O)C(=O)C3=C(O)c4c(O)cccc4[C@@](C)(O)[C@H]3[C@H](O)[C@@H]12 [oxytetracycline],OTC depletion by HPLC after adding 0.1 mg expressed protein extract,uaZ,the degradation proteins prpD and uaZ exhibited degradation effects on OTC
same,OTC depletion by HPLC after adding 0.1 mg expressed protein extract,prpD,the degradation proteins prpD and uaZ exhibited degradation effects on OTC
